{"source": "patent US20180318246A1", "about": "(SUN PHARMACEUTICAL INDUSTRIES LIMITED, priority 2015, published 2018)", "origin": "cited, not measured here", "note": "Where a name gives a salt, the structure may show the parent alone."}
{"smiles": "COC(=O)/C=C/C(=O)OC", "note": "[dimethyl fumarate]", "values": [{"measurement": "Permeability coefficient compared with monomethyl fumarate", "value": "significantly higher"}]}
